# Assays:
# S. pneumoniae strain 19F = experiment: Bacterial killing assay (CFU/mL reduction after 6 h); type: cell-based, Streptococcus pneumoniae; conditions: log CFU reduction CPP-antisense PNA – log CFU reduction CPP-scPNA
# Description: Compared to S. pneumoniae strains TIGR4 and D39, strain 19F was clearly affected by incubation with CPP-coupled scPNAs (Fig. S2). Specific antimicrobial activity of TAT-antisense PNAs was low, regardless of the target gene (Fig. S2, Table 2).
# (§1) After culturing S. pneumoniae strains in BHI, D39 and 19F were diluted to approximately 10^5 CFU/mL in phosphate-buffered saline (PBS):BHI (93%:7%), while TIGR4 was diluted to approximately 10^5 CFU/mL in PBS:BHI (96%:4%). Next, 450-μL volumes of the respective bacterial suspensions, containing approximately 0.5× 10^5 CFU, were transferred to 2-mL reaction tubes. A 50-μL volume of PNA solution was added to a final PNA concentration of 1 to 20 μM or as indicated. Fifty μL H2O served as a mock control. The reaction tubes were incubated for 6 h at 37°C and 7 rpm (Rotor SB3; Stuart, Staffordshire, United Kingdom). The concentration of CPP-PNA that reduced CFU/mL by 50% after 6 h of incubation compared to an untreated control (IC50) was calculated by nonlinear regression analysis using GraphPad Prism software (GraphPad Software, San Diego, CA).
# [1] = system: G. mellonella larvae infected with S. pneumoniae TIGR4; experiment: G. mellonella infection model, larval survival; type: in vivo, Galleria mellonella; conditions: 10 nmol CPP-PNA/larva; for Effect on survival of infected larvae (in words): data not shown
# Description: Antimicrobial efficiency of CPP-antisense PNA conjugates was evaluated in vivo employing a G. mellonella infection and treatment model ([22], [28]). Larvae were infected with S. pneumoniae strain TIGR4 and subsequently treated with 10 nmol CPP-anti-gyrA PNAs. Treatment with levofloxacin served as a positive control. Larval survival was observed over 7 days.
# Larvae of the greater wax moth (G. mellonella) were obtained from Bugs-International GmbH (Irsingen/Unterfeld, Germany). For infection experiments, S. pneumoniae TIGR4 was grown for 7 h in BHI, washed twice in a 0.9% NaCl solution, and suspended in 0.9% NaCl to a final concentration of approximately 1 × 10^8 CFU/mL. Larvae weighing 150 to 200 mg were infected with 1 × 10^6 to 3 × 10^6 CFU/larva. Bacteria were injected into the hemocoel of the larvae between the last two pairs of prolegs using a microapplicator (World Precision Instruments, LLC, Sarasota, FL) and a fine-dosage syringe (Omnican-F, 0.01 to 1 mL, 0.30 × 12 mm; B. Braun AG, Melsungen, Germany). As mock control, 0.9% NaCl (PNA experiment) or 0.9% NaCl/3% DMSO (levofloxacin experiment) was injected. For CPP-PNA treatment, larvae were injected 30 min postinfection with 10 nmol CPP-PNA/larva. For levofloxacin treatment, larvae were injected 30 min postinfection with 1 or 10 μg levofloxacin/larva. Larvae were incubated for 7 days, and survival was monitored daily ([22]).
# S. pneumoniae strain D39 = experiment: Bacterial killing assay (CFU/mL reduction after 6 h); type: cell-based, Streptococcus pneumoniae; conditions: log CFU reduction CPP-antisense PNA – log CFU reduction CPP-scPNA
# Description: Similar results were obtained with S. pneumoniae strain D39 (Fig. S1). (RXR)4XB-coupled antisense PNAs were more efficient than TAT-coupled antisense PNAs. […] The difference between the target genes anti-gyrA and anti-rpoB was less pronounced in D39 than in TIGR4 (Table 2).
# as §1
# S. pneumoniae TIGR4 = experiment: as above; type: cell-based, Streptococcus pneumoniae; conditions: for Δlog CFU reduction in S. pneumoniae strains: TIGR4: log CFU reduction CPP-antisense PNA – log CFU reduction CPP-scPNA; for Reduction of bacterial CFU/mL compared to untreated control (in words): concentration range 2.5 to 20 μM, n = 5
# Description: The impact of different CPPs on the efficacy of antisense PNAs targeting gyrA and rpoB in S. pneumoniae was tested using an in vitro killing assay ([25]). S. pneumoniae strains were incubated for 6 h with CPP-antisense PNA conjugates. We determined the reduction of bacterial CFU/mL caused by different CPP-coupled antisense PNA constructs compared to an untreated control. Three different CPPs were tested: HIV-1 TAT (TAT), oligolysin (K8), and (RXR)4XB (Table 1). Concentration-dependent bactericidal activity was investigated by treatment of S. pneumoniae TIGR4 in a CPP-antisense PNA conjugate concentration range of 2.5 to 20 μM (Fig. 1).
# as §1
Substance,Δlog CFU reduction in S. pneumoniae strains: 19F (S. pneumoniae strain 19F; CPNA 2.5 μM),Δlog CFU reduction in S. pneumoniae strains: 19F (S. pneumoniae strain 19F; CPNA 5 μM),Δlog CFU reduction in S. pneumoniae strains: 19F (S. pneumoniae strain 19F; CPNA 10 μM),Δlog CFU reduction in S. pneumoniae strains: 19F (S. pneumoniae strain 19F; CPNA 20 μM),Effect on survival of infected larvae (in words) [1],Δlog CFU reduction in S. pneumoniae strains: D39 (S. pneumoniae strain D39; CPNA 2.5 μM),Δlog CFU reduction in S. pneumoniae strains: D39 (S. pneumoniae strain D39; CPNA 5 μM),Δlog CFU reduction in S. pneumoniae strains: D39 (S. pneumoniae strain D39; CPNA 10 μM),Δlog CFU reduction in S. pneumoniae strains: D39 (S. pneumoniae strain D39; CPNA 20 μM),"Δlog CFU reduction in S. pneumoniae strains: TIGR4 (S. pneumoniae TIGR4; CPNA 2.5 μM, 6 h)","Δlog CFU reduction in S. pneumoniae strains: TIGR4 (S. pneumoniae TIGR4; CPNA 5 μM, 6 h)","Δlog CFU reduction in S. pneumoniae strains: TIGR4 (S. pneumoniae TIGR4; CPNA 10 μM, 6 h)","Δlog CFU reduction in S. pneumoniae strains: TIGR4 (S. pneumoniae TIGR4; CPNA 20 μM, 6 h)","Reduction of bacterial CFU/mL compared to untreated control (in words) (S. pneumoniae TIGR4; TIGR4, 6 h)","Δlog CFU reduction in S. pneumoniae strains: TIGR4 (S. pneumoniae TIGR4; CPNA 20 μM, 6 h, listed as (RXR)4XB-anti-rpoB)","Δlog CFU reduction in S. pneumoniae strains: 19F (S. pneumoniae strain 19F; CPNA 10 μM, listed as (RXR)4XB-anti-gyrA)","Increase of survival rate ([1]; 30 min postinfection, 7 days, n = 60) [%]","Δlog CFU reduction in S. pneumoniae strains: TIGR4 (S. pneumoniae TIGR4; CPNA 10 μM, 6 h, listed as (RXR)4XB-anti-gyrA)","log CFU reduction (S. pneumoniae TIGR4; TIGR4, 6 h, 20 μM CPP-PNA)","IC50 (S. pneumoniae TIGR4; TIGR4, 6 h incubation vs untreated control, nonlinear regression, read-out: 50% inhibitory concentration (IC50): concentration that reduced CFU/mL by 50%) [nM]"
"GRKKRRQRRRYK-eg-ctgccaagatga [TAT-anti-rpoB PNA, HIV-1 TAT (48–57) peptide coupled to antisense PNA against S. pneumoniae rpoB]",0.05,0.05,0,0,did not increase survival,0,0.11,0.16,0.51,0,0,0,0,No reduction of bacterial counts,–,–,–,–,–,–
"RXRRXRRXRRXRXB-eg-ctgccaagatga [(RXR)4XB-anti-rpoB PNA, (RXR)4XB peptide coupled to antisense PNA against rpoB]",0.18,0.17,0.16,0.56,did not increase survival,0,0.16,0.61,1.98,0,0.40,0.66,≥ 1,significant decreases,1.58,–,–,–,–,–
"RXRRXRRXRRXRXB-eg-tgcattaata [(RXR)4XB-anti-gyrA PNA, (RXR)4XB peptide coupled to antisense PNA against gyrA]",0.72,1.20,≥ 1,1.48,–,0,0,0.42,2.23,0,0.98,≥ 1,3.18,significant decreases,–,1.21,22,1.80,4,630

# Reference: publication PMC9784828, “Antimicrobial Activity of Peptide-Coupled Antisense Peptide Nucleic Acids in Streptococcus pneumoniae” (Microbiology Spectrum, 2022)
